Data as given in ChEMBL document CHEMBL1201862, “PubChem BioAssay data set” (2004).
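How tested: cells in 96-well plates exposed to compound for 48 hours at five concentrations. At the GI50, growth is halved.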 The source made the active and inactive calls. No stated cut-off is given here; in the data, active = GI50 up to about 1.1 µM and inactive = higher.

How the values were obtained:
Experiment in all cases: DTP human tumour cell line panel, 48 h
[1] = system: LOX IMVI
[2] = system: SK-MEL-2
[3] = system: NCI-H226
[4] = system: NCI-H522
[5] = system: IGROV-1
[6] = system: MCF7
[7] = system: UO-31
[8] = system: BT-549
[9] = system: TK-10
[10] = system: HCT-116
[11] = system: OVCAR-5
[12] = system: OVCAR-3
[13] = system: MOLT-4
[14] = system: SNB-19
[15] = system: COLO 205
[16] = system: 786-0
[17] = system: SNB-75
[18] = system: PC-3
[19] = system: KM12
[20] = system: SF-295

Structure (SMILES) | GI50 [1] | GI50 [2] | GI50 [3] | GI50 [4] | GI50 [5] | GI50 [6] | GI50 [7] | GI50 [8] | GI50 [9] | GI50 [10] | GI50 [11] | GI50 [12] | GI50 [13] | GI50 [14] | GI50 [15] | GI50 [16] | GI50 [17] | GI50 [18] | GI50 [19] | GI50 [20]
CC1=NC(=O)C(C)(c2ccccc2)N1CCc1ccccc1 (stereo not given) | 58.7 µM (inactive) | > 100 µM (inactive) | 42.7 µM (inactive) | > 100 µM (inactive) | 57.8 µM (inactive) | 55.1 µM (inactive) | > 100 µM (inactive) | > 100 µM (inactive) | > 100 µM (inactive) | 28 µM (inactive) | > 100 µM (inactive) | 11.1 µM (inactive) | 15.9 µM (inactive) | > 100 µM (inactive) | 27.4 µM (inactive) | > 100 µM (inactive) | 16.5 µM (inactive) | 44.7 µM (inactive) | 44.3 µM (inactive) | 38.5 µM (inactive)
C[C@@H](C[C@H]1OC(C)(C)O[C@@H]1C(C)(C)O)[C@H]1CC=C2[C@]3(C)[C@H](O)C[C@H]4C(C)(C)[C@H](O)CC[C@]4(C)[C@H]3CC[C@]21C | 8.13 µM (inactive) | 11.5 µM (inactive) | 7.62 µM (inactive) | 8.24 µM (inactive) | 11.9 µM (inactive) | 2.12 µM (inactive) | 8.93 µM (inactive) | 11.4 µM (inactive) | 11.7 µM (inactive) | 5.86 µM (inactive) | 8.69 µM (inactive) | 7.91 µM (inactive) | 4.52 µM (inactive) | 10.7 µM (inactive) | 5.26 µM (inactive) | 9.73 µM (inactive) | 9.79 µM (inactive) | 5.05 µM (inactive) | 6.21 µM (inactive) | 9.14 µM (inactive)
CC(C)Cc1ccc(C(C)/C=C2\CCC(CN(C)C)C2=O)cc1 (stereo not given) | 6.97 µM (inactive) | 14.4 µM (inactive) | 20.2 µM (inactive) | 7.31 µM (inactive) | 9.73 µM (inactive) | 4.43 µM (inactive) | 10.9 µM (inactive) | 17.1 µM (inactive) | 9.23 µM (inactive) | 7.05 µM (inactive) | 23 µM (inactive) | 12.7 µM (inactive) | 2.64 µM (inactive) | 12.4 µM (inactive) | 11.6 µM (inactive) | 2.96 µM (inactive) | 14.1 µM (inactive) | 10.5 µM (inactive) | 5.27 µM (inactive) | 14.7 µM (inactive)
Cc1ccc2nc3ccccc3c(C3C4C(=O)N(c5ccc(F)cc5)C(=O)C4ON3C(C(N)=O)c3ccccc3)c2c1 (stereo not given) | 24.5 µM (inactive) | 33.3 µM (inactive) | 46.3 µM (inactive) | 17.5 µM (inactive) | 25.4 µM (inactive) | 23.4 µM (inactive) | 36.1 µM (inactive) | > 100 µM (inactive) | 55.6 µM (inactive) | 26.4 µM (inactive) | 25.8 µM (inactive) | 26.7 µM (inactive) | 41.6 µM (inactive) | 57.8 µM (inactive) | 17.5 µM (inactive) | 37.9 µM (inactive) | 76.9 µM (inactive) | 55.2 µM (inactive) | 32.4 µM (inactive) | 28.8 µM (inactive)
CCCCCCCCCCCC[C@@H](O)[C@H]1CC[C@H]([C@H](O)CC[C@H](O)[C@@H]2CC[C@@H](CCCCCCCC3=C[C@H](C)OC3=O)O2)O1 | > 27.2 µM (inactive) | > 50 µM (inactive) | > 50 µM (inactive) | 46.8 µM (inactive) | > 50 µM (inactive) | > 50 µM (inactive) | > 50 µM (inactive) | > 50 µM (inactive) | > 50 µM (inactive) | 5.58 µM (inactive) | > 50 µM (inactive) | > 50 µM (inactive) | > 15.2 µM (inactive) | > 50 µM (inactive) | > 50 µM (inactive) | > 50 µM (inactive) | > 50 µM (inactive) | > 50 µM (inactive) | > 50 µM (inactive) | > 12.6 µM (inactive)
Clc1ccc2c(c1)CC1C[N+]3=C(CCCC3)C1=C2 (stereo not given) | > 100 µM (inactive) | > 100 µM (inactive) | 76.6 µM (inactive) | 47.4 µM (inactive) | > 100 µM (inactive) | 61.1 µM (inactive) | > 100 µM (inactive) | 55.5 µM (inactive) | 72.8 µM (inactive) | > 100 µM (inactive) | > 100 µM (inactive) | 34.4 µM (inactive) | > 100 µM (inactive) | 48.3 µM (inactive) | 58.1 µM (inactive) | > 100 µM (inactive) | 52 µM (inactive) | 60.5 µM (inactive) | 57.8 µM (inactive) | 28 µM (inactive)
Cc1cccc(C)c1NC(=S)NC=C1C(=O)c2ccccc2C1=O | 19.1 µM (inactive) | 16 µM (inactive) | 46.1 µM (inactive) | 3.41 µM (inactive) | 6.95 µM (inactive) | 4.59 µM (inactive) | 9.29 µM (inactive) | 4.84 µM (inactive) | 6.73 µM (inactive) | 4.62 µM (inactive) | 39.7 µM (inactive) | 5.38 µM (inactive) | 0.75 µM (active) | 18.2 µM (inactive) | 3.52 µM (inactive) | 13.1 µM (inactive) | 3.52 µM (inactive) | 3.76 µM (inactive) | 2.83 µM (inactive) | 4.67 µM (inactive)
COC1C(OC(=O)/C=C/C=C/C=C/C=C\C(=O)O)CCC2(CO2)C1C1(C)OC1CC=C(C)C (stereo not given) | > 100 µM (inactive) | > 100 µM (inactive) | > 100 µM (inactive) | > 100 µM (inactive) | > 100 µM (inactive) | > 100 µM (inactive) | > 100 µM (inactive) | > 100 µM (inactive) | > 100 µM (inactive) | > 100 µM (inactive) | > 100 µM (inactive) | > 100 µM (inactive) | > 100 µM (inactive) | > 100 µM (inactive) | > 100 µM (inactive) | > 100 µM (inactive) | > 100 µM (inactive) | > 100 µM (inactive) | > 100 µM (inactive) | > 100 µM (inactive)
